From US8497228B2, “Active substance combinations with insecticidal and acaricidal properties” (Bayer Cropscience AG, priority 2007, dated 2013)

Assays:
[1] = test system: green peach aphid (Myzus persicae); experiment: Myzus persicae test (Example A1, cabbage leaves sprayed); assay type: in vivo; details: spray
[2] = test system: army worm larvae (Spodoptera frugiperda); experiment: Spodoptera frugiperda larvae test (Example C, cabbage leaves sprayed); assay type: in vivo; details: spray
[3] = test system: mustard beetle larvae (Phaedon cochleariae); experiment: Phaedon cochleariae larvae test (Example B, cabbage leaves sprayed); details: 100 g/ha, spray
[4] = test system: green peach aphid (Myzus persicae); experiment: Myzus persicae test (Example A2, cabbage leaves dipped); assay type: in vivo; details: dipping
Description: Cabbage leaves (Brassica oleracea) which are severely infested with the green peach aphid (Myzus persicae) are treated by dipping into the active substance preparation of the desired concentration.

For `O=C1C=C(N(CCF)Cc2ccc(Cl)nc2)CO1` [Compound I-4, 4-{[(6-chloropyrid-3-yl)methyl](2-fluoroethyl)amino}furan-2(5H)-one], the “Destruction in % after 1 day” value ([1]; 4 g/ha) was 30%, the “Destruction in % after 6 days” value ([2]; 4 g/ha) was 0% and the “Destruction in % after 2 days” value [3] was 0%.

`O=C1C=C(N(Cc2ccc(Cl)nc2)CC(F)F)CO1` [Compound I-5, 4-{[(6-chloropyrid-3-yl)methyl](2,2-difluoroethyl)amino}furan-2(5H)-one] was tested, and the “Destruction in % after 6 days” value ([2]; 0.8 g/ha) was 0%.

`CN(Cc1cnc(Cl)c(F)c1)C1=CC(=O)OC1` [Compound I-6, 4-{[(6-chloro-5-fluoropyrid-3-yl)methyl](methyl)amino}furan-2(5H)-one] was tested, and the “Destruction in % after 1 day” value ([1]; 0.16 g/ha) was 30%, the “Destruction in % after 6 days” value ([2]; 4 g/ha) was 0% and the “Destruction in % after 2 days” value [3] was 0%.

For `CN(Cc1ccc(Cl)nc1)C1=CC(=O)OC1` [Compound I-10, 4-{[(6-chloropyrid-3-yl)methyl](methyl)amino}furan-2(5H)-one], the “Destruction in % after 1 day” value ([4]; 0.8 ppm) was 45%.

For `Cc1cc(C(F)(C(F)(F)F)C(F)(F)F)ccc1NC(=O)c1cccc(Cl)c1C(=O)N[C@@H](C)CS(C)(=O)=O` [Compound IIb, (S)-3-chloro-N^1-{2-methyl-4-[1,2,2,2-tetrafluoro-1-(trifluoromethyl)ethyl]phenyl}-N^2-(1-methyl-2-methylsulphonylethyl)phthalamide], the “Destruction in % after 1 day” value ([4]; 100 ppm) was 10%, the “Destruction in % after 1 day” value ([1]; 0.8 g/ha) was 0% and the “Destruction in % after 6 days” value ([2]; 0.16 g/ha) was 0%. The “Destruction in % after 6 days” value ([2]; 0.8 g/ha) was 67%.

`Cc1cc(C(F)(C(F)(F)F)C(F)(F)F)ccc1NC(=O)c1cccc(I)c1C(=O)NC(C)(C)CS(C)(=O)=O` [Flubendiamide, flubendiamide, reference compound] was tested, and the “Destruction in % after 1 day” value ([1]; 0.16 g/ha) was 0%, the “Destruction in % after 6 days” value ([2]; 0.8 g/ha) was 33% and the “Destruction in % after 6 days” value ([2]; 4 g/ha) was 67%. The “Destruction in % after 2 days” value [3] was 17%.
